Data published in US20250171462A1 (NICO Therapeutics, Inc., priority 2022, published 2025).
Read-outs that look alike come from different tables or passages of the source.

Molecular target: T1, full-length SARM1 (FL-SARM1) (Homo sapiens, UniProt Q6SZW1)
T1 sequence (Q6SZW1 28-724): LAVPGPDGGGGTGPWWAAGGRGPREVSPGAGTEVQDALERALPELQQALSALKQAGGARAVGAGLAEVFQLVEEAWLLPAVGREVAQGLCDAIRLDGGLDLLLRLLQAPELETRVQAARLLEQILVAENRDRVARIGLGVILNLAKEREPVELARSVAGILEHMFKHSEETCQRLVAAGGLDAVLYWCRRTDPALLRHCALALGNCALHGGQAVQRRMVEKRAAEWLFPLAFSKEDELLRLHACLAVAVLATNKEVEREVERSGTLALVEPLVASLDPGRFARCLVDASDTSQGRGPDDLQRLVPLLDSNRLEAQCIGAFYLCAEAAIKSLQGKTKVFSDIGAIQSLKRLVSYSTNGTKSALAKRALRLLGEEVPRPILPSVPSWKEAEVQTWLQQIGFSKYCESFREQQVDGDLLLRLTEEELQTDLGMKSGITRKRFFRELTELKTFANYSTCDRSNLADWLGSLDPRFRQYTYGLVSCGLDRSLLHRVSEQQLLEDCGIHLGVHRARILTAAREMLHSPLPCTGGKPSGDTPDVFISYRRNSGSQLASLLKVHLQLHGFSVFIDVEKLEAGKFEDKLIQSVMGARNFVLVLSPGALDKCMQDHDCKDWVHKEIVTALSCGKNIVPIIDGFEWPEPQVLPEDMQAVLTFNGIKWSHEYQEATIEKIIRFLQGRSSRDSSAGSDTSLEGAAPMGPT
Assay: FL-SARM1 cellular lysate assay (NAD/NADH-Glo detection of remaining NAD+, NMN-activated)

[1] = Activity (μM) (IC50), 11 point curve
[2] = read-out: Activity (IC50 class), 11 point curve
[3] = Activity (IC50 class), 11 point curve

SMILES: Cc1ccc(NC(=O)N2[C@@H]3CC(C)C[C@H]2C3)cc1-c1ncccc1C (mixture of isomers) [Example 31, 3-methyl-N-(4-methyl-3-(3-methylpyridin-2-yl)phenyl)-6-azabicyclo[3.1.1]heptane-6-carboxamide]
- IC50 [1]: 0.8 µM
- IC50 [2]: 0.0001 to 1 µM

SMILES: Cc1ccc(NC(=O)N2CCCC3C2C3C(F)(F)F)cc1-c1ccccn1 (mixture of isomers) [Example 98, N-(4-methyl-3-pyridin-2-ylphenyl)-7-(trifluoromethyl)-2-azabicyclo[4.1.0]heptane-2-carboxamide]
- IC50 [3]: > 10 µM
- IC50 [1]: 20 µM

SMILES: Cc1ccc(NC(=O)C2CC(C(F)(F)F)C2)cc1-c1ccccn1 (mixture of isomers) [Example 130, N-(4-methyl-3-pyridin-2-ylphenyl)-3-(trifluoromethyl)cyclobutane-1-carboxamide]
- IC50 [3]: 1 to 10 µM
- IC50 [1]: 2.6 µM

SMILES: Cc1ccc(NC(=O)C2CCC(C)CCN2c2ccccn2)cc1-c1ncccn1 (mixture of isomers) [Example 259, 5-methyl-N-(4-methyl-3-(pyrimidin-2-yl)phenyl)-1-(pyridin-2-yl)azepane-2-carboxamide]
- IC50 [3]: 1 to 10 µM
- IC50 [1]: 5.8 µM

SMILES: Cc1ccc(NC(=O)C2CC3CC3CN2c2ccccn2)cc1-c1ncc(F)cn1 (mixture of isomers) [Example 260, N-(3-(5-fluoropyrimidin-2-yl)-4-methylphenyl)-3-(pyridin-2-yl)-3-azabicyclo[4.1.0]heptane-4-carboxamide]
- IC50 [3]: 1 to 10 µM
- IC50 [1]: 1.3 µM

SMILES: Cc1ccc(NC(=O)C2C3CCC2(c2ccn(C)n2)C3)cc1-c1ncc(F)cn1 (mixture of isomers) [Example 317]
- IC50 [3]: 1 to 10 µM
- IC50 [1]: 1 µM

SMILES: Cc1ccc(NC(=O)C2C3CCC2(c2ccccn2)C3)cc1-c1ncc(F)cn1 (mixture of isomers) [Example 318]
- IC50 [3]: 1 to 10 µM
- IC50 [1]: 1.5 µM

SMILES: Cc1ccc(NC(=O)N2CC[C@@H]3[C@@H](C)[C@@H]3C2)cc1-c1ccccn1 (racemic) [Example 37, trans-7-methyl-N-(4-methyl-3-(pyridin-2-yl)phenyl)-3-azabicyclo[4.1.0]heptane-3-carboxamide]
- IC50 [1]: 0.1 µM
- IC50 [2]: 0.0001 to 1 µM

SMILES: COC(=O)[C@@H]1CC[C@@H]2C[C@H]1N2C(=O)Nc1ccc(C)c(-c2ccccn2)c1 (racemic) [Example 70, cis-methyl-6-((4-methyl-3-(pyridin-2-yl)phenyl)carbamoyl)-6-azabicyclo[3.1.1]heptane-2-carboxylate]
- IC50 [3]: 1 to 10 µM
- IC50 [1]: 1.9 µM

SMILES: Cc1nnc(C2CCCN2C(=O)Nc2ccc(C)c(-c3ccccn3)c2)o1 (racemic) [Example 87, 2-(5-methyl-1,3,4-oxadiazol-2-yl)-N-(4-methyl-3-pyridin-2-ylphenyl)pyrrolidine-1-carboxamide]
- IC50 [3]: > 10 µM
- IC50 [1]: 17 µM

SMILES: Cc1ccc(NC(=O)N2CCCC2c2ccn(C)n2)cc1-c1ccccn1 (racemic) [Example 88, 2-(1-methylpyrazol-3-yl)-N-(4-methyl-3-pyridin-2-ylphenyl)pyrrolidine-1-carboxamide]
- IC50 [3]: > 10 µM
- IC50 [1]: 11 µM

SMILES: Cc1ccc(NC(=O)N2CCCC2c2ccnn2C)cc1-c1ccccn1 (racemic) [Example 89, 2-(2-methylpyrazol-3-yl)-N-(4-methyl-3-pyridin-2-ylphenyl)pyrrolidine-1-carboxamide]
- IC50 [3]: > 10 µM
- IC50 [1]: 12 µM

SMILES: Cc1ccc(NC(=O)N2CCCC2c2cnn(C)c2)cc1-c1ccccn1 (racemic) [Example 90, 2-(1-methylpyrazol-4-yl)-N-(4-methyl-3-pyridin-2-ylphenyl)pyrrolidine-1-carboxamide]
- IC50 [3]: > 10 µM
- IC50 [1]: 14 µM

SMILES: Cc1ccc(NC(=O)N2CCCC2c2ncccn2)cc1-c1ccccn1 (racemic) [Example 91, N-(4-methyl-3-pyridin-2-ylphenyl)-2-pyrimidin-2-ylpyrrolidine-1-carboxamide]
- IC50 [3]: > 10 µM
- IC50 [1]: 16 µM
